Measured values taken from patent US9724347B2, “1-pyrazolyl-3-(4-((2-anilinopyrimidin-4-yl)oxy)napththalen-1-yl) ureas as P38 MAP knase inhibitors” (Respivert Ltd., priority 2011, dated 2017).
Marks after values point to notes of the source that are not given here.

Key:
d-U937 cells = assay: Cell viability: MTT assay; type: cell-based, human; conditions: 1 μg/mL
In short: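 Differentiated U937 cells exposed to compound at 1 or 10 μg/mL final, either 4 h in 5% FCS RPMI1640 or 24 h in 10% FCS RPMI1640. After medium replacement, MTT added 1 h, formazan dissolved in DMSO, A550 read. % viability loss vs 0.5% DMSO vehicle; apparent viability gain shown as negative %.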

[1] = tested on: ICAM-1 expression in BEAS2B cells; assay: Poly I:C-induced ICAM-1 expression in BEAS2B cells; type: cell-based, human; conditions: Homo sapiens, BEAS-2B, read-out: PolyIC/ICAM1 IC50 (BEAS2B)
In short: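 BEAS2B human bronchial epithelial cells pre-incubated 2 h with compound, then transfected with 1 μg/mL poly I:C plus Oligofectamine. After 18 h, surface ICAM-1 measured by cell-based ELISA (OD450–655), normalised to crystal violet cell count (OD595). Inhibition calculated against vehicle control.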

HRV16 = HRV16 induced CPE in MRC5 cells; type: cell-based, human rhinovirus
Method: The supernatants were aspirated, and then fresh media added followed by incubation for 4 days. Where appropriate, cells were pre-incubated with compound or DMSO for 2 hr, and the compounds and DMSO added again after washout of the virus.
The percentage inhibition for each well was calculated. The IC50 value was calculated from the concentration-response curve generated by the serial dilutions of the test compounds.

PBMC cells = assay: Cell mitosis assay; type: cell-based, human
Method: Peripheral blood mononucleocytes (PBMCs) from healthy subjects were separated from whole blood (Quintiles, London, UK) using a density gradient (Histopaque®-1077, Sigma-Aldrich, Poole, UK). The PBMCs (3 million cells per sample) were subsequently treated with 2% PHA (Sigma-Aldrich, Poole, UK) for 48 hr, followed by a 20 hr exposure to varying concentrations of test compounds. At 2 hr before collection, PBMCs were treated with demecolcine (0.1 μg/mL; Invitrogen, Paisley, UK,) to arrest cells in metaphase. To observe mitotic cells, PBMCs were permeabilised and fixed by adding Intraprep (50 μL; Beckman Coulter, France), and stained with anti-phospho-histone 3 ([…]; #9701; Cell Signalling, Danvers, Mass.) and propidium iodide (1 mg/mL; Sigma-Aldrich, Poole, UK,) as previously described (Muehlbauer P. A. and Schuler M. J., Mutation Research, 2003, 537:117-130). Fluorescence was observed using an ATTUNE flow cytometer (Invitrogen, Paisley, UK), gating for lymphocytes.

p38MAPKγ (MAPK12) = p38MAPKγ (MAPK12) (Homo sapiens (Human), UniProt P53778); assay: p38 MAPKγ enzyme inhibition (FRET, Z-LYTE); type: biochemical
In short: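 Z-LYTE FRET kinase format on donor/acceptor-labeled synthetic peptide; protease development 1 hr cleaves only non-phosphorylated peptide. Phosphorylation derived from coumarin/fluorescein emission ratio, low ratio indicating high phosphorylation.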

GSK 3α enzyme isoform = GSK 3α enzyme isoform (Homo sapiens (Human), UniProt P49840); assay: GSK 3α enzyme inhibition (FRET, Z-LYTE); type: biochemical; conditions: read-out: IC50 Values for Enzyme Inhibition GSK3α
In short: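 Human GSK3α (500 ng/mL stock) was preincubated 2 h at RT with compound (stocks 4, 0.4, 0.04 or 0.004 μg/mL), then given FRET peptide (8 μM stock) and ATP (40 μM stock) for 1 h. After 1 h protease development, the coumarin/fluorescein emission ratio gave phosphorylation level.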

[2] = target: p38 MAPKα isoform (MAPK14) (Homo sapiens (Human), UniProt Q16539); assay: p38 MAPKα enzyme inhibition (FRET, Z-LYTE); type: biochemical
[3] = tested on: HRV IL-8 release (BEAS2B); assay: Rhinovirus-induced IL-8 release in BEAS2B cells; type: cell-based, human; conditions: at 0.04 μg/mL
Method: Human rhinovirus RV16 was obtained from the American Type Culture Collection (Manassas, Va.). Viral stocks were generated by infecting Hela cells with HRV until 80% of the cells were cytopathic.
BEAS2B cells were infected with HRV at an MOI of 5 and incubated for 2 hr at 33° C. with gentle shaking for to promote absorption. The cells were then washed with PBS, fresh media added and the cells were incubated for a further 72 hr. The supernatant was collected for assay of IL-8 concentrations using a Duoset ELISA development kit (R&D systems, Minneapolis, Minn.).
The level of cell surface ICAM-1 expression was determined by cell-based ELISA. At 72 hr after infection, cells were fixed with 4% formaldehyde in PBS. After quenching endogenous peroxidase by adding 0.1% sodium azide and 1% hydrogen peroxide, wells were washed with wash-buffer (0.05% Tween in PBS: PBS-Tween). […] The ICAM-1 signal was detected by adding substrate and reading at 450 nm with a reference wavelength of 655 nm using a spectrophotometer. The wells were then washed with PBS-Tween and total cell numbers in each well were determined by reading absorbance at 595 nm after Crystal Violet staining and elution by 1% SDS solution. The measured OD450-655 readings were corrected for cell number by dividing with the OD595 reading in each well. […]

GSK3α = GSK3α (Homo sapiens (Human), UniProt P49840); assay: Kinase binding, active site-directed competition binding (DiscoverX)
A/J mice = assay: Cigarette smoke model; type: in vivo; conditions: for CXCL1 in BALF, % inhibition / Cell numbers in BALF, Macrophage / Cell numbers in BALF, Macrophage, % inhibition / Cell numbers in BALF, Neutrophil / Cell numbers in BALF, Neutrophil, % inhibition: tobacco smoke
Method: A/J mice (males, 5 weeks old) were exposed to cigarette smoke (4% cigarette smoke, diluted with air) for 30 min/day for 11 days using a Tobacco Smoke Inhalation Experiment System for small animals (Model SIS-CS; Sibata Scientific Technology, Tokyo, Japan). Test substances were administered intra-nasally (35 μL of solution in 50% DMSO/PBS) once daily for 3 days after the final cigarette smoke exposure. At 12 hr after the last dosing, each of the animals was anesthetized, the trachea cannulated and bronchoalveolar lavage fluid (BALF) was collected. The numbers of alveolar macrophages and neutrophils were determined by FACS analysis (EPICS® ALTRA II, Beckman Coulter, Inc., Fullerton, Calif., USA) using anti-mouse MOMA2 antibody (macrophage) or anti-mouse 7/4 antibody (neutrophil). BALF was centrifuged and the supernatant was collected. The level of keratinocyte chemoattractant (KC; CXCL1) in BALF was quantitated using a Quentikine® mouse KC ELISA kit (R&D systems, Inc., Minneapolis, Minn., USA).

Balb/c mice = assay: LPS-induced neutrophil accumulation in mice; type: in vivo
Method: […] At T=0, mice were placed into an exposure chamber and exposed to LPS (7.0 mL, 0.5 mg/mL solution in PBS) for 30 min). After a further 8 hr the animals were anesthetized, their tracheas cannulated and BALF extracted by infusing and then withdrawing from their lungs 1.0 mL of PBS via the tracheal catheter. Total and differential white cell counts in the BALF samples were measured using a Neubaur haemocytometer. Cytospin smears of the BALF samples were prepared by centrifugation at 200 rpm for 5 min at RT and stained using a DiffQuik stain system (Dade Behring). Cells were counted using oil immersion microscopy. Data for neutrophil numbers in BAL are shown as mean±S.E.M. (standard error of the mean). The percentage inhibition of neutrophil accumulation was calculated for each treatment relative to vehicle treatment.

p38 MAPKα isoform (MAPK14), sequence (Q16539 whole entry, canonical isoform): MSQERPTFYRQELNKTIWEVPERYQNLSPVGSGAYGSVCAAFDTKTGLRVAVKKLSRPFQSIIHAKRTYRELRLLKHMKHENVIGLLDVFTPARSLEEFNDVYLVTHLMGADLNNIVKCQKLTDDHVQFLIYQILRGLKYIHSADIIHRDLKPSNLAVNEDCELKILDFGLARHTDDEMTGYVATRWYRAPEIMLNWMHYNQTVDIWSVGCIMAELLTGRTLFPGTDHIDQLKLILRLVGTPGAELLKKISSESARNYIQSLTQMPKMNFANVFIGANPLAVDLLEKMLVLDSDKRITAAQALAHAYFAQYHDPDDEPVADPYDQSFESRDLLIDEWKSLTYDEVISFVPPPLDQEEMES
p38MAPKγ (MAPK12), sequence (P53778 whole entry): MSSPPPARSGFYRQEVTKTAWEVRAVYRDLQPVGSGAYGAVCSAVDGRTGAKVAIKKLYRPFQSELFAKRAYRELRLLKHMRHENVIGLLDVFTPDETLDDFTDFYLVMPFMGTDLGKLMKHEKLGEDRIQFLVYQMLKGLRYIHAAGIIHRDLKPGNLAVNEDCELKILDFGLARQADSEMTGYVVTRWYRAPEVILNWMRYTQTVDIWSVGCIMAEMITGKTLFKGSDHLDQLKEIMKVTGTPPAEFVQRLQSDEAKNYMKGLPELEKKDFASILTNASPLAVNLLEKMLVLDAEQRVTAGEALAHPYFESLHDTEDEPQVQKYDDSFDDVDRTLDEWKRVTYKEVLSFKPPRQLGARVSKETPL
GSK 3α enzyme isoform, sequence (P49840 whole entry, canonical isoform): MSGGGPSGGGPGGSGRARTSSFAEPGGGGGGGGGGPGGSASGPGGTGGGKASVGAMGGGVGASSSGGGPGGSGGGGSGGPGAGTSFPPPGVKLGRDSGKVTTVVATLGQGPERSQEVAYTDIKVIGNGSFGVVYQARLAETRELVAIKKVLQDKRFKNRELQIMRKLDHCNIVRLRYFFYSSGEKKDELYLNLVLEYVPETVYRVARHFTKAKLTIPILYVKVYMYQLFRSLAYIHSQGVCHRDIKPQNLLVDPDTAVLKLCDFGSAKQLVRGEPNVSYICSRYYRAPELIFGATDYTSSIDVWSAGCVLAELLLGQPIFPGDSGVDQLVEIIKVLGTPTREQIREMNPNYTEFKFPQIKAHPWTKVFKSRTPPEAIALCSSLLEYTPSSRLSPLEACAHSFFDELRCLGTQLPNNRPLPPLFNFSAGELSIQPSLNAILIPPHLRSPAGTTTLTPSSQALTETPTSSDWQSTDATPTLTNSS
GSK3α, sequence (P49840 whole entry): as the sequence (P49840 whole entry, canonical isoform) above

COc1cc(Nc2nccc(Oc3ccc(NC(=O)Nc4cc(C(C)(C)C)nn4-c4ccc(C)cc4)c4ccccc34)n2)ccc1O [Example 25, 1-(3-(tert-butyl)-1-(p-tolyl)-1H-pyrazol-5-yl)-3-(4-((2-((4-hydroxy-3-methoxyphenyl)amino)pyrimidin-4-yl)oxy)naphthalen-1-yl)urea]
MTT Assay Cell viability at time point in d-U937 Cells (d-U937 cells; 4 h): −ve (−ve and +ve indicate the value is below and above respectively, the no significant effect threshold defined as 30% inhibition at 1 μg/mL at the time point indicated)
MTT Assay Cell viability at time point in d-U937 Cells (d-U937 cells; 24 h): −ve (−ve and +ve indicate the value is below and above respectively, the no significant effect threshold defined as 30% inhibition at 1 μg/mL at the time point indicated)
IC50 [1]: 2.5 nM
HRV CPE (MRC5) % inhibition (HRV16; tested at 0.0008 μg/mL, low cell viability at 0.04 μg/mL): 33%*
Mitosis Assay % inhibition in PBMC Cells (PBMC cells; 1 μg/mL): 29.1%
Mitosis Assay % inhibition in PBMC Cells (PBMC cells; 5 μg/mL): 63.5%
IC50 (p38MAPKγ (MAPK12)): 281 nM
IC50 (GSK 3α enzyme isoform): > 1590 nM
IC50 [2]: 77 nM

Cc1ccc(-n2nc(C(C)(C)C)cc2NC(=O)Nc2ccc(Oc3ccnc(Nc4ccccc4Cl)n3)c3ccccc23)cc1 [Example 6, 1-(3-(tert-butyl)-1-(p-tolyl)-1H-pyrazol-5-yl)-3-(4-((2-((2-chlorophenyl)amino)pyrimidin-4-yl)oxy)naphthalen-1-yl)urea]
HRV IL-8 (BEAS2B) % inhibition [3]: 77%
MTT Assay Cell viability at time point in d-U937 Cells (d-U937 cells; 4 h): −ve (−ve and +ve indicate the value is below and above respectively, the no significant effect threshold defined as 30% inhibition at 1 μg/mL at the time point indicated)
MTT Assay Cell viability at time point in d-U937 Cells (d-U937 cells; 24 h): −ve (−ve and +ve indicate the value is below and above respectively, the no significant effect threshold defined as 30% inhibition at 1 μg/mL at the time point indicated)
IC50 [1]: 56 nM
HRV CPE (MRC5) % inhibition (HRV16; at 0.04 μg/mL): 46%
IC50 (p38MAPKγ (MAPK12)): > 16200 nM
IC50 (GSK 3α enzyme isoform): > 16200 nM
IC50 [2]: 161 nM

Cc1ccc(-n2nc(C(C)(C)C)cc2NC(=O)Nc2ccc(Oc3ccnc(Nc4ccccc4)n3)c3ccccc23)cc1 [Example 1, 1-(3-(tert-Butyl)-1-(p-tolyl)-1H-pyrazol-5-yl)-3-(4-(2-(phenylamino)pyrimidin-4-yloxy)naphthalen-1-yl)urea]
inhibition of binding against GSK3α (in words) (GSK3α): without significant effect
MTT Assay Cell viability at time point in d-U937 Cells (d-U937 cells; 4 h): −ve (−ve and +ve indicate the value is below and above respectively, the no significant effect threshold defined as 30% inhibition at 1 μg/mL at the time point indicated)
MTT Assay Cell viability at time point in d-U937 Cells (d-U937 cells; 24 h): −ve (−ve and +ve indicate the value is below and above respectively, the no significant effect threshold defined as 30% inhibition at 1 μg/mL at the time point indicated)
CXCL1 in BALF, % inhibition (A/J mice; 0.32 μg/mL intra-nasal): 0%
Cell numbers in BALF, Macrophage (A/J mice; 0.32 μg/mL intra-nasal): 13.3 ± 0.20 ×10^4/mL
Cell numbers in BALF, Macrophage, % inhibition (A/J mice; 0.32 μg/mL intra-nasal): 11%
Cell numbers in BALF, Neutrophil (A/J mice; 0.32 μg/mL intra-nasal): 12.4 ± 0.32 ×10^4/mL
Cell numbers in BALF, Neutrophil, % inhibition (A/J mice; 0.32 μg/mL intra-nasal): 12%
CXCL1 in BALF, % inhibition (A/J mice; 1.6 μg/mL intra-nasal): 26%
Cell numbers in BALF, Macrophage (A/J mice; 1.6 μg/mL intra-nasal): 11.6 ± 0.42 ×10^4/mL
Cell numbers in BALF, Macrophage, % inhibition (A/J mice; 1.6 μg/mL intra-nasal): 28%
Cell numbers in BALF, Neutrophil (A/J mice; 1.6 μg/mL intra-nasal): 10.5 ± 0.06 ×10^4/mL
Cell numbers in BALF, Neutrophil, % inhibition (A/J mice; 1.6 μg/mL intra-nasal): 29%
CXCL1 in BALF, % inhibition (A/J mice; 8.0 μg/mL intra-nasal): 41%
Cell numbers in BALF, Macrophage (A/J mice; 8.0 μg/mL intra-nasal): 10.1 ± 0.42 ×10^4/mL
Cell numbers in BALF, Macrophage, % inhibition (A/J mice; 8.0 μg/mL intra-nasal): 43%
Cell numbers in BALF, Neutrophil (A/J mice; 8.0 μg/mL intra-nasal): 9.1 ± 0.28 ×10^4/mL
Cell numbers in BALF, Neutrophil, % inhibition (A/J mice; 8.0 μg/mL intra-nasal): 41%
CXCL1 in BALF, % inhibition (A/J mice; 40 μg/mL intra-nasal): 76%
Cell numbers in BALF, Macrophage (A/J mice; 40 μg/mL intra-nasal): 7.9 ± 0.20 ×10^4/mL
Cell numbers in BALF, Macrophage, % inhibition (A/J mice; 40 μg/mL intra-nasal): 64%
Cell numbers in BALF, Neutrophil (A/J mice; 40 μg/mL intra-nasal): 7.9 ± 0.34 ×10^4/mL
Cell numbers in BALF, Neutrophil, % inhibition (A/J mice; 40 μg/mL intra-nasal): 52%
cigarette smoke induced CXCL1 (KC) production in BALF (in words) (A/J mice; mice): inhibited
macrophage accumulation in BALF induced by cigarette smoke (in words) (A/J mice; mice): dose-dependent inhibition
neutrophil accumulation in BALF induced by cigarette smoke (in words) (A/J mice; mice): dose-dependent inhibition
Neutrophil numbers in BALF, % inhibition (Balb/c mice; 0.05 mg/mL intra tracheal, pre-dose time 2 hr): 18%
Neutrophil numbers in BALF, % inhibition (Balb/c mice; 0.2 mg/mL intra tracheal, pre-dose time 2 hr): 48%
Neutrophil numbers in BALF, % inhibition (Balb/c mice; 1.0 mg/mL intra tracheal, pre-dose time 2 hr): 77%
Neutrophil numbers in BALF, % inhibition (Balb/c mice; 1.0 mg/mL intra tracheal, pre-dose time 8 hr): 48%
Neutrophil numbers in BALF, % inhibition (Balb/c mice; 1.0 mg/mL intra tracheal, pre-dose time 12 hr): 4%
effect on LPS-induced neutrophil accumulation (in words) (Balb/c mice; mice): dose dependent inhibition
duration of action (Balb/c mice; time course experiment, mice): long duration of action
Mitosis Assay % inhibition in PBMC Cells (PBMC cells; 1 μg/mL): 13.7%
Mitosis Assay % inhibition in PBMC Cells (PBMC cells; 5 μg/mL): 31.3%
